# In patent publication US10105357B2, “Indication of antibiotic drugs for preparation of cancer inhibition pharmaceutical composition” (LAUNX BIOMEDICAL CO., LTD., priority 2014, dated 2018):
# Where two headings read alike, the source gives them in different places.
# Key:
# U-2OS = test: Cell viability analysis, osteosarcoma U-2OS; format: cell-based, human
# [1] = test system: HCT116 (p53+) (Colorectal Carcinoma)
# [2] = test system: MKN-45 (Gastric Adenocarcinoma); test: Cell viability analysis, gastric cancer MKN-45; format: cell-based, human
# [3] = test system: SAS (Tongue squamous cell carcinoma); test: Cell viability analysis, tongue cancer SAS; format: cell-based, human
# T24 = test: Cell viability analysis, bladder cancer T24; format: cell-based, human
# [4] = test system: HepG2 (Hepatocellular Carcinoma); test: Cell viability analysis, hepatic cancer HepG2; format: cell-based, human
# [5] = test system: Hep3B (hepatocellular carcinoma); test: Cell viability analysis, hepatic cancer Hep3B; format: cell-based, human
# [6] = test system: MCF7 (Mammary Gland, Adenocarcinoma); test: Cell viability analysis, breast cancer MCF7; format: cell-based, human
# [7] = test system: C-33A (Cervical carcinoma); test: Cell viability analysis, cervical cancer C-33A; format: cell-based, human
# AsPC-1 = test: Cell viability analysis, pancreatic cancer AsPC-1; format: cell-based, human
# [8] = test system: HeLa (Cervix Adenocarcinoma); test: Cell viability analysis, cervical cancer HeLa; format: cell-based, human
# [9] = test system: A375 (Amelanotic Melanoma); test: Cell viability analysis, skin cancer A375; format: cell-based, human
# TOV-21G = test: Cell viability analysis, ovarian cancer TOV-21G; format: cell-based, human
# [10] = test system: 786-O (Renal adenocarcinoma); test: Cell viability analysis, renal cancer 786-O; format: cell-based, human
# NIH: OVCAR-3 = test: Cell viability analysis, ovarian cancer NIH: OVCAR-3; format: cell-based, human
# [11] = test system: LoVo (Colorectal Adenocarcinoma); test: Cell viability analysis, colon cancer LoVo; format: cell-based, human
# [12] = test system: AGS (Gastric Adenocarcinoma); test: Cell viability analysis, gastric cancer AGS; format: cell-based, human
# [13] = test system: PC3 (p53−) (Prostate Adenocarcinoma); test: Cell viability analysis, prostate cancer PC3; format: cell-based, human
# BxPC-3 = test: Cell viability analysis, pancreatic cancer BxPC-3; format: cell-based, human
# [14] = test system: MDA-MB-231 (Mammary Gland, Adenocarcinoma); test: Cell viability analysis, breast cancer MDA-MB-231; format: cell-based, human
# [15] = test system: BCC (basal cell carcinoma); test: Cell viability analysis, skin cancer BCC; format: cell-based, human
# [16] = test system: TSGH-8301 (Urinary Bladder Carcinoma); test: Cell viability analysis, bladder cancer TSGH-8301; format: cell-based, human
# [17] = test system: A549 (Lung Adenocarcinoma); test: Cell viability analysis, lung cancer A549; format: cell-based, human
# [18] = test system: HI650 (Lung Adenocarcinoma); test: Cell viability analysis, lung cancer HI650; format: cell-based, human
compound,measurement,setting,value
COC(=O)Nc1nc2ccc([S+]([O-])c3ccccc3)cc2[nH]1 (stereo not drawn) [Oxfendazole],viability at 10 µM,"U-2OS; Homo sapiens, 72 h, U2OS, repeated experiment, read-out: The results of antibiotic drug inhibiting cancer cell lines (cell viability analysis), U2OS",83.4%
same,viability,[1],67.4%
same,viability at 10 µM,"[2]; Homo sapiens, MKN-45, 72 h, MKN-45, repeated experiment, read-out: The results of antibiotic drug inhibiting cancer cell lines (cell viability analysis), MKN-45",79.9%
same,viability at 10 µM,"[3]; Homo sapiens, 72 h, SAS, repeated experiment, read-out: The results of antibiotic drug inhibiting cancer cell lines (cell viability analysis), SAS",72.3%
same,viability at 10 µM,"T24; Homo sapiens, T-24, 72 h, T24, repeated experiment, read-out: The results of antibiotic drug inhibiting cancer cell lines (cell viability analysis), T24",70.2%
same,viability at 10 µM,"[4]; Homo sapiens, HepG2, 72 h, HepG2, repeated experiment, read-out: The results of antibiotic drug inhibiting cancer cell lines (cell viability analysis), HepG2",99.4%
same,viability at 10 µM,"[5]; Homo sapiens, 72 h, Hep3B, repeated experiment, read-out: The results of antibiotic drug inhibiting cancer cell lines (cell viability analysis), Hep3B",107%
same,viability at 10 µM,"[6]; Homo sapiens, MCF7, 72 h, MCF-7, repeated experiment, read-out: The results of antibiotic drug inhibiting cancer cell lines (cell viability analysis), MCF-7",64.6%
same,viability at 10 µM,"[7]; Homo sapiens, 72 h, C-33A, repeated experiment, read-out: The results of antibiotic drug inhibiting cancer cell lines (cell viability analysis), C-33A",86.4%
same,viability at 10 µM,"AsPC-1; Homo sapiens, ASPC1, 72 h, AsPC-1, repeated experiment, read-out: The results of antibiotic drug inhibiting cancer cell lines (cell viability analysis), AsPC-1",50.9%
same,viability at 10 µM,"[8]; Homo sapiens, HeLa, 72 h, HeLa, repeated experiment, read-out: The results of antibiotic drug inhibiting cancer cell lines (cell viability analysis), HeLa",37%
same,viability at 10 µM,"[9]; Homo sapiens, A-375, 72 h, A375, repeated experiment, read-out: The results of antibiotic drug inhibiting cancer cell lines (cell viability analysis), A375",59.7%
same,viability at 10 µM,"TOV-21G; Homo sapiens, TOV21G, 72 h, TOV-21G, repeated experiment, read-out: The results of antibiotic drug inhibiting cancer cell lines (cell viability analysis), TOV-21G",65.1%
same,viability at 10 µM,"[10]; Homo sapiens, 786-0, 72 h, 786-O, repeated experiment, read-out: The results of antibiotic drug inhibiting cancer cell lines (cell viability analysis), 786-O",72.3%
same,viability at 10 µM,"NIH: OVCAR-3; Homo sapiens, 72 h, NIH-OVCAR-3, repeated experiment, read-out: The results of antibiotic drug inhibiting cancer cell lines (cell viability analysis), NIH-OVCAR-3",62.2%
same,viability at 10 µM,"[11]; Homo sapiens, LoVo, 72 h, read-out: The results of antibiotic drug inhibiting cancer cell lines (cell viability analysis), LoVo, repeated experiment",73.7%
same,viability at 10 µM,"[12]; Homo sapiens, 72 h, AGS, repeated experiment, read-out: The results of antibiotic drug inhibiting cancer cell lines (cell viability analysis), AGS",51.4%
same,viability at 10 µM,"[13]; Homo sapiens, 72 h, PC-3, repeated experiment, read-out: The results of antibiotic drug inhibiting cancer cell lines (cell viability analysis), PC-3",72.7%
same,viability at 10 µM,"BxPC-3; Homo sapiens, 72 h, BxPC-3, repeated experiment, read-out: The results of antibiotic drug inhibiting cancer cell lines (cell viability analysis), BxPC-3",55%
same,viability at 10 µM,"[14]; Homo sapiens, MDA-MB-231, 72 h, MDA-MB231, repeated experiment, read-out: The results of antibiotic drug inhibiting cancer cell lines (cell viability analysis), MDA-MB231",73.9%
same,viability at 10 µM,"[15]; Homo sapiens, 72 h, BCC, repeated experiment, read-out: The results of antibiotic drug inhibiting cancer cell lines (cell viability analysis), BCC",55.3%
same,viability at 10 µM,"[16]; Homo sapiens, 72 h, TSGH-8301, repeated experiment, read-out: The results of antibiotic drug inhibiting cancer cell lines (cell viability analysis), TSGH-8301",67.6%
same,viability at 10 µM,"[17]; Homo sapiens, A549, 72 h, A549, repeated experiment, read-out: The results of antibiotic drug inhibiting cancer cell lines (cell viability analysis), A549",64.7%
same,viability at 10 µM,"[18]; Homo sapiens, NCI-H1650, 72 h, H1650, repeated experiment, read-out: The results of antibiotic drug inhibiting cancer cell lines (cell viability analysis), H1650",64%
COC(=O)Nc1nc2cc(C(=O)c3ccc(F)cc3)ccc2[nH]1 [Flubendazole (Flutelmium)],"The results of antibiotic drug inhibiting cancer cell lines (cell viability analysis), U2OS","U-2OS; U2OS, repeated experiment",48.74
same,"The results of antibiotic drug inhibiting cancer cell lines (cell viability analysis), HCT116",[1],20.63
same,"The results of antibiotic drug inhibiting cancer cell lines (cell viability analysis), MKN-45",[2],63.06
same,"The results of antibiotic drug inhibiting cancer cell lines (cell viability analysis), SAS","[3]; SAS, repeated experiment",45.16
same,"The results of antibiotic drug inhibiting cancer cell lines (cell viability analysis), T24","T24; T24, repeated experiment",34.67
same,"The results of antibiotic drug inhibiting cancer cell lines (cell viability analysis), HepG2","[4]; HepG2, repeated experiment",56.8
same,"The results of antibiotic drug inhibiting cancer cell lines (cell viability analysis), Hep3B","[5]; Hep3B, repeated experiment",56.93
same,"The results of antibiotic drug inhibiting cancer cell lines (cell viability analysis), MCF-7","[6]; MCF-7, repeated experiment",55.01
same,"The results of antibiotic drug inhibiting cancer cell lines (cell viability analysis), C-33A","[7]; C-33A, repeated experiment",46.4
same,"The results of antibiotic drug inhibiting cancer cell lines (cell viability analysis), AsPC-1","AsPC-1; AsPC-1, repeated experiment",35.53
same,"The results of antibiotic drug inhibiting cancer cell lines (cell viability analysis), HeLa","[8]; HeLa, repeated experiment",25.78
same,"The results of antibiotic drug inhibiting cancer cell lines (cell viability analysis), A375","[9]; A375, repeated experiment",30.32
same,"The results of antibiotic drug inhibiting cancer cell lines (cell viability analysis), TOV-21G","TOV-21G; TOV-21G, repeated experiment",24.84
same,"The results of antibiotic drug inhibiting cancer cell lines (cell viability analysis), 786-O","[10]; 786-O, repeated experiment",20.97
same,"The results of antibiotic drug inhibiting cancer cell lines (cell viability analysis), NIH-OVCAR-3","NIH: OVCAR-3; NIH-OVCAR-3, repeated experiment",59.15
same,"The results of antibiotic drug inhibiting cancer cell lines (cell viability analysis), LoVo","[11]; LoVo, repeated experiment",53.35
same,"The results of antibiotic drug inhibiting cancer cell lines (cell viability analysis), AGS","[12]; AGS, repeated experiment",28.25
same,"The results of antibiotic drug inhibiting cancer cell lines (cell viability analysis), PC-3",[13],32.11
same,"The results of antibiotic drug inhibiting cancer cell lines (cell viability analysis), BxPC-3","BxPC-3; BxPC-3, repeated experiment",32.76
same,"The results of antibiotic drug inhibiting cancer cell lines (cell viability analysis), MDA-MB231","[14]; MDA-MB231, repeated experiment",43.43
same,"The results of antibiotic drug inhibiting cancer cell lines (cell viability analysis), BCC","[15]; BCC, repeated experiment",31.79
same,"The results of antibiotic drug inhibiting cancer cell lines (cell viability analysis), TSGH-8301","[16]; TSGH-8301, repeated experiment",45.64
same,"The results of antibiotic drug inhibiting cancer cell lines (cell viability analysis), A549","[17]; A549, repeated experiment",22.71
same,"The results of antibiotic drug inhibiting cancer cell lines (cell viability analysis), H1650","[18]; H1650, repeated experiment",35.69
Cl.c1ccc([C@H]2CN3CCSC3=N2)cc1 [Levamisole Hydrochloride (Ergamisol)],"The results of antibiotic drug inhibiting cancer cell lines (cell viability analysis), U2OS",U-2OS,79.87
same,viability,[1],116%
same,"The results of antibiotic drug inhibiting cancer cell lines (cell viability analysis), MKN-45",[2],112.3
same,"The results of antibiotic drug inhibiting cancer cell lines (cell viability analysis), SAS",[3],89.56
same,"The results of antibiotic drug inhibiting cancer cell lines (cell viability analysis), T24",T24,92.87
same,"The results of antibiotic drug inhibiting cancer cell lines (cell viability analysis), HepG2",[4],127.7
same,"The results of antibiotic drug inhibiting cancer cell lines (cell viability analysis), Hep3B",[5],121.1
same,"The results of antibiotic drug inhibiting cancer cell lines (cell viability analysis), MCF-7",[6],102.4
same,"The results of antibiotic drug inhibiting cancer cell lines (cell viability analysis), C-33A",[7],96.19
same,"The results of antibiotic drug inhibiting cancer cell lines (cell viability analysis), AsPC-1",AsPC-1,85.72
same,"The results of antibiotic drug inhibiting cancer cell lines (cell viability analysis), HeLa",[8],137
same,"The results of antibiotic drug inhibiting cancer cell lines (cell viability analysis), A375",[9],113.9
same,"The results of antibiotic drug inhibiting cancer cell lines (cell viability analysis), TOV-21G",TOV-21G,83.45
same,"The results of antibiotic drug inhibiting cancer cell lines (cell viability analysis), 786-O",[10],93.24
same,"The results of antibiotic drug inhibiting cancer cell lines (cell viability analysis), NIH-OVCAR-3",NIH: OVCAR-3,105.6
same,"The results of antibiotic drug inhibiting cancer cell lines (cell viability analysis), LoVo",[11],100.7
same,"The results of antibiotic drug inhibiting cancer cell lines (cell viability analysis), AGS",[12],120.5
same,"The results of antibiotic drug inhibiting cancer cell lines (cell viability analysis), PC-3",[13],125.7
same,"The results of antibiotic drug inhibiting cancer cell lines (cell viability analysis), BxPC-3",BxPC-3,68.02
same,"The results of antibiotic drug inhibiting cancer cell lines (cell viability analysis), MDA-MB231",[14],102.7
same,"The results of antibiotic drug inhibiting cancer cell lines (cell viability analysis), BCC",[15],114.1
same,"The results of antibiotic drug inhibiting cancer cell lines (cell viability analysis), TSGH-8301",[16],106.8
same,"The results of antibiotic drug inhibiting cancer cell lines (cell viability analysis), A549",[17],104.9
same,"The results of antibiotic drug inhibiting cancer cell lines (cell viability analysis), H1650",[18],78.34
